# Source: ChEMBL document CHEMBL5252562, “Synthesis, evaluation of anti-breast cancer activity in vitro of ICS II derivatives and summary of the structure-activity relationship” (Bioorg Med Chem, 2023)
# Key:
# MCF7 [1] = test: Antitumor activity against human MCF7 cells assessed as cell viability incubated for 48 hrs by CCK8 assay; assay type: functional, cell-based; settings: MCF7, 48 h
# [2] = Cytotoxicity against African green monkey Vero cells; assay type: toxicity, cell-based; settings: African green monkey (Chlorocebus sabaeus)
# [3] = Selectivity index, ratio of IC50 for cytotoxicity against African green monkey Vero cells to IC50 for antitumor activity against human MCF7 cells; assay type: toxicity, cell-based; settings: Vero cells and MCF7 cells, read-out: Ratio IC50
# MCF7 [4] = test: Antitumor activity against human MCF7 cells assessed as cell viability at 20 uM incubated for 48 hrs by CCK8 assay; assay type: functional; settings: read-out: Activity
# MCF7 [5] = test: Potency index, ratio of Icariside-II IC50 to test compound IC50 for antitumor activity against human MCF7 cells; assay type: functional
SMILES,IC50 (MCF7 [1]) [µM],IC50 [2] [µM],selectivity ratio [3],viability at 20 µM (MCF7 [4]) [%],Ratio IC50 (MCF7 [5])
COc1ccc(-c2oc3c(CC=C(C)C)c(OCC=C(C)C)cc(O)c3c(=O)c2O[C@@H]2O[C@@H](C)[C@H](O)[C@@H](O)[C@H]2O)cc1,2.17,6.74,2.85,< 50,–
COc1ccc(-c2oc3c(CC=C(C)C)c(OCCO)cc(O)c3c(=O)c2O[C@@H]2O[C@@H](C)[C@H](O)[C@@H](O)[C@H]2O)cc1,10.2,–,–,< 50,–
C#CCOc1cc(OCC#C)c2c(=O)c(O[C@@H]3O[C@@H](C)[C@H](O)[C@@H](O)[C@H]3O)c(-c3ccc(OC)cc3)oc2c1CC=C(C)C,6.24,–,–,< 50,–
COc1ccc(-c2oc3c(CC=C(C)C)c(O)c(CN4CCCC4)c(O)c3c(=O)c2O[C@@H]2O[C@@H](C)[C@H](O)[C@@H](O)[C@H]2O)cc1,> 20,–,–,–,–
COc1ccc(-c2oc3c(CC=C(C)C)c(OC(C)=O)cc(OC(C)=O)c3c(=O)c2O[C@@H]2O[C@@H](C)[C@H](OC(C)=O)[C@@H](OC(C)=O)[C@H]2OC(C)=O)cc1,0.7,3.13,4.47,< 50,5
C=CCOc1cc(O)c2c(=O)c(O[C@@H]3O[C@@H](C)[C@H](O)[C@@H](O)[C@H]3O)c(-c3ccc(OC)cc3)oc2c1CC=C(C)C,2.89,5.88,2.03,< 50,–
COc1ccc(-c2oc3c(CC=C(C)C)c(O)c(CN(C(C)C)C(C)C)c(O)c3c(=O)c2O[C@@H]2O[C@@H](C)[C@H](O)[C@@H](O)[C@H]2O)cc1,> 20,–,–,–,–
COc1ccc(-c2oc3c(CC=C(C)C)c(O)c(CN4CCCCC4)c(O)c3c(=O)c2O[C@@H]2O[C@@H](C)[C@H](O)[C@@H](O)[C@H]2O)cc1,> 20,–,–,–,–
COc1ccc(-c2oc3c(CC=C(C)C)c(OCCCN4CCNCC4)cc(O)c3c(=O)c2O[C@@H]2O[C@@H](C)[C@H](O)[C@@H](O)[C@H]2O)cc1,4.07,> 20,> 5,< 50,–
COc1ccc(-c2oc3c(CC=C(C)C)c(OCCCBr)cc(O)c3c(=O)c2O[C@@H]2O[C@@H](C)[C@H](O)[C@@H](O)[C@H]2O)cc1,13.4,–,–,< 50,–
C=C(C)COc1c(CN2CCC(C)CC2)c(O)c2c(=O)c(O[C@@H]3O[C@@H](C)[C@H](O)[C@@H](O)[C@H]3O)c(-c3ccc(OC)cc3)oc2c1CC=C(C)C,> 20,–,–,–,–
COc1ccc(-c2oc3c(CC=C(C)C)c(OCC4OCCO4)cc(O)c3c(=O)c2O[C@@H]2O[C@@H](C)[C@H](O)[C@@H](O)[C@H]2O)cc1,6.28,–,–,< 50,–
CCN(CC)Cc1c(O)c(CC=C(C)C)c2oc(-c3ccc(OC)cc3)c(O[C@@H]3O[C@@H](C)[C@H](O)[C@@H](O)[C@H]3O)c(=O)c2c1O,> 20,–,–,–,–
COc1ccc(-c2oc3c(CC=C(C)C)c(OCCCN4CCC(C)CC4)cc(O)c3c(=O)c2O[C@@H]2O[C@@H](C)[C@H](O)[C@@H](O)[C@H]2O)cc1,3.17,10.3,3.24,< 50,–
CCOc1cc(O)c2c(=O)c(O[C@@H]3O[C@@H](C)[C@H](O)[C@@H](O)[C@H]3O)c(-c3ccc(OC)cc3)oc2c1CC=C(C)C,8.25,–,–,< 50,–
COc1ccc(-c2oc3c(CC=C(C)C)c(O)c(CN4CCN(C)CC4)c(O)c3c(=O)c2O[C@@H]2O[C@@H](C)[C@H](O)[C@@H](O)[C@H]2O)cc1,> 20,–,–,–,–
COc1ccc(-c2oc3c(CC=C(C)C)c(OCCCCCCCCCO)cc(O)c3c(=O)c2O[C@@H]2O[C@@H](C)[C@H](O)[C@@H](O)[C@H]2O)cc1,10.2,–,–,< 50,–
C#CCOc1cc(O)c2c(=O)c(O[C@@H]3O[C@@H](C)[C@H](O)[C@@H](O)[C@H]3O)c(-c3ccc(OC)cc3)oc2c1CC=C(C)C,2.79,6.43,2.3,< 50,–
COc1ccc(-c2oc3c(CC=C(C)C)c(OCc4ccc([N+](=O)[O-])cc4)cc(O)c3c(=O)c2O[C@@H]2O[C@@H](C)[C@H](O)[C@@H](O)[C@H]2O)cc1,> 20,–,–,–,–
COc1ccc(-c2oc3c(CC=C(C)C)c(OCCCN4CCCCC4)cc(O)c3c(=O)c2O[C@@H]2O[C@@H](C)[C@H](O)[C@@H](O)[C@H]2O)cc1,3.79,15.5,4.08,< 50,–
C=C(C)COc1cc(O)c2c(=O)c(O[C@@H]3O[C@@H](C)[C@H](O)[C@@H](O)[C@H]3O)c(-c3ccc(OC)cc3)oc2c1CC=C(C)C,3.97,8.18,2.06,< 50,–
COc1ccc(-c2oc3c(CC=C(C)C)c(O)c(CN4CCNCC4)c(O)c3c(=O)c2O[C@@H]2O[C@@H](C)[C@H](O)[C@@H](O)[C@H]2O)cc1,> 20,–,–,–,–
CCN(CC)CCCOc1cc(O)c2c(=O)c(O[C@@H]3O[C@@H](C)[C@H](O)[C@@H](O)[C@H]3O)c(-c3ccc(OC)cc3)oc2c1CC=C(C)C,3.26,6.19,1.89,< 50,–
COc1ccc(-c2oc3c(CC=C(C)C)c(OCCCN4CCCC4)cc(O)c3c(=O)c2O[C@@H]2O[C@@H](C)[C@H](O)[C@@H](O)[C@H]2O)cc1,3.09,6.15,1.99,< 50,–
COc1ccc(-c2oc3c(CC=C(C)C)c(O)c(CN4CCC(C)CC4)c(O)c3c(=O)c2O[C@@H]2O[C@@H](C)[C@H](O)[C@@H](O)[C@H]2O)cc1,17.4,–,–,–,–
COc1ccc(-c2oc3c(CC=C(C)C)c(OC(=O)N(C)C)cc(O)c3c(=O)c2O[C@@H]2O[C@@H](C)[C@H](O)[C@@H](O)[C@H]2O)cc1,> 20,–,–,–,–
COc1ccc(-c2oc3c(CC=C(C)C)c(OC(C)=O)cc(O)c3c(=O)c2O[C@@H]2O[C@@H](C)[C@H](OC(C)=O)[C@@H](OC(C)=O)[C@H]2OC(C)=O)cc1,1.54,3.88,2.51,< 50,–
COc1ccc(-c2oc3c(CC=C(C)C)c(O)cc(O)c3c(=O)c2O[C@@H]2O[C@@H](C)[C@H](O)[C@@H](O)[C@H]2O)cc1,7.52,9.34,1.24,–,–
CC(=O)O[C@H]1C(=O)[C@@]2(C)[C@H]([C@H](OC(=O)c3ccccc3)[C@]3(O)C[C@H](OC(=O)[C@H](O)[C@@H](NC(=O)c4ccccc4)c4ccccc4)C(C)=C1C3(C)C)[C@]1(OC(C)=O)CO[C@@H]1C[C@@H]2O [PACLITAXEL],0.48,–,–,–,–
